Experimental data as given in patent publication US9908848B2, “Amide derivatives of lactam based N-acylethanolamine acid amidase (NAAA) inhibitors” (The Regents of the University of California, priority 2013, dated 2018).

Tests used:
human NAAA = target: T1, human NAAA (Homo sapiens, UniProt Q02083); assay: Fluorogenic h-NAAA assay; assay type: biochemical; conditions: recombinant HEK-hNAAA preparation
T1 construct: made in house; host or cells: HEK293 cells, stably transfected; soluble fraction after freeze/thaw
T1 sequence (Q02083 29-359): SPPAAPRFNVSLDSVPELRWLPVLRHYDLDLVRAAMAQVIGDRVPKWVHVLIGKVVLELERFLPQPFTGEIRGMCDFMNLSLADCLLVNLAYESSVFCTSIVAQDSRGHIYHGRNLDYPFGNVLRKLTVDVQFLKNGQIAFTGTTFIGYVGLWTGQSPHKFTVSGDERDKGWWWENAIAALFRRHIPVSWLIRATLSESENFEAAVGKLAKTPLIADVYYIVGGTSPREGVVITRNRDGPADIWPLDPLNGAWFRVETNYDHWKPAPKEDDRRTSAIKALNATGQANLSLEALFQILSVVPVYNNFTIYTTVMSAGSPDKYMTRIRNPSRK
Description: Hek293 cells stably transfected with the human NAAA coding sequence cloned from a human spleen cDNA library were used as enzyme source. Recombinant HEK-hNAAA pellets were resuspended in homogenizing buffer, and sonicated. Samples were centrifuged at 800×g for 15 min at 4° C. and the supernatants were ultracentrifuged at 12,000×g for 30 min at 4° C. The pellets were resuspended in PBS pH 7.4 on ice and subjected to a freeze/thaw cycle at −80° C. (two freeze/thaw cycles at −80° C. for Examples 34-37). The suspension was finally centrifuged at 105,000×g for 1 h at 4° C. Protein concentration was measured and samples stored at −80° C. until use.
The assay was run in Optiplate 96-wells black plates, in a total reaction volume of 200 μL. NAAA protein preparation (4.0 μg for Examples except 34-37, which were 20.0 μg) was pre-incubated for 10 min with various concentrations of test compounds or vehicle control (5% DMSO) in 100 mM citrate/phosphate buffer (pH 4.5) containing 3.0 mM DTT, 0.1% Triton X-100, 0.05% BSA, 150 mM NaCl. N-(4-methyl-2-oxo-chromen-7-yl)-hexadecanamide was used as a substrate (5.0 μM) and the reaction carried over for 30 min at 37° C. The samples were then read in a Perkin Elmer Envision plate reader using an excitation wavelength of 360 nm and emission 460 nm. IC50 values were calculated by non-linear regression analysis of log [concentration]/inhibition curves using GraphPad Prism 5 (GraphPad Software Inc., CA—USA) applying a standard slope curve fitting.

[1] = target: T2, Rat AC (r-AC), Acid Ceramidase (Rattus norvegicus, UniProt Q6P7S1); assay: Rat AC (r-AC) assay, UPLC/MS; assay type: biochemical; conditions: read-out: r-AC UPLC/MS assay % inhib.
T2 construct: V5 (C); His (C); made in house; host or cells: HEK293 cells transfected with pEF6-rAC-V5/His, selected with G418; soluble fraction after freeze/thaw
T2 sequence (Q6P7S1 21-394): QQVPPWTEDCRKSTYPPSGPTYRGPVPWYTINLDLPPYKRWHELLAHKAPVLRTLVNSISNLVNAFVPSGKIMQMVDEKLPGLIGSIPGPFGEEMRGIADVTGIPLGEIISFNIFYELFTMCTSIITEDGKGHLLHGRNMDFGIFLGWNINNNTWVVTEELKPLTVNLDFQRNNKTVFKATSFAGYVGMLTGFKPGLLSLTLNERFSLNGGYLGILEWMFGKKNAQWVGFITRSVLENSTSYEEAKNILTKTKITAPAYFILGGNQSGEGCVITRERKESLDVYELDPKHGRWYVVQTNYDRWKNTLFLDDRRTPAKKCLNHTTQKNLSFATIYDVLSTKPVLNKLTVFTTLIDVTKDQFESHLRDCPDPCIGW
Description: The selectivity of selected compounds versus Acid Ceramidase (AC) was determined.
Rat AC (r-AC) was cloned from a brain cDNA library using primers based on the sequence obtained from the National Center for Biotechnology Information (NCBI) database: 5′rAC (5′-GACCATGCTGGGCCGTAGT-3′) (SEQ ID NO:1) and 3′rAC (5′-CCAGCCTATACAAGGGTCT-3′) (SEQ ID NO:2). The PCR (High Fidelity PCR Master, Roche) product was subcloned into a pEF6-V5/His vector (Invitrogen) to construct a mammalian expression vector encoding V5/His-tagged rat AC. HEK293 cells were transfected with pEF6-rAC-V5/His using Super-Fect reagent (Qiagen) and screened with G418 (0.3 mg/mL). Cells were suspended in 20 mM Tris HCl (pH 7.5) containing 0.32M sucrose, sonicated and centrifuged at 800×g for 15 min at 4° C. The supernatants were centrifuged again at 12,000×g for 30 min at 4° C. The pellets were suspended in phosphate-buffered saline (PBS) and subjected to 2 freeze-thaw cycles at −80° C. The suspensions were centrifuged at 105,000×g for 1 hour at 4° C. The supernatants containing recombinant AC were kept at −80° C. until use. Protein concentration was measured using the bicinchoninic acid (BCA) assay (Pierce). Recombinant rat AC (50 μg) was preincubated with inhibitors (final DMSO concentration 1%) in assay buffer (100 mM sodium phosphate, 0.1% Nonidet P-40, 150 mM NaCl, 3 mM DTT, 100 mM sodium citrate, pH 4.5) for 30 min at 37° C. Reactions were started by the addition of 100 μM N-lauroyl ceramide (Nu-Chek Prep, Elysian, Minn.) and carried on for 30 min at 37° C. Reactions were stopped by addition of a mixture of chloroform/methanol (2:1, vol/vol) containing 1 nmol of heptadecanoic acid (HDA; NuChek Prep). The organic phases were collected, dried under N2, and analyzed by LC-MS in the negative-ion mode using […] (HDA) as internal standard (m/z=199 for lauric acid, m/z=269 for HDA). HDA was eluted on an XDB Eclipse C18 column isocratically at 2.2 mL/min for 1 min with a solvent mixture of 95% methanol and 5% water, both containing 0.25% acetic acid and 5 mM ammonium acetate. The column temperature was 50° C. Electrospray ionization (ESI) was in the negative mode, capillary voltage as 4 kV, and fragmentor voltage was 100 V. N2 was used as drying gas at a flow rate of 13 L/min and a temperature of 350° C. Nebulizer pressure was set at 60 psi. We monitored […] in the selected-ion monitoring (SIM) mode using HDA as internal standard. Calibration curves were generated using commercial lauric acid (Nu-Chek Prep; m/z=199).

IC50 (human NAAA) [nM]	inhibition at 1 µM [1] [%]	Structure (SMILES)
334	25	O=C(CCCCCCc1ccccc1)N[C@H]1CNC1=O [Example 7, 7-Phenyl-N-[(3S)-2-Oxoazetidin-3-yl]-heptanamide]
108	25	CCCCCCCCC(=O)N[C@H]1CNC1=O [Example 3, N-[(3S)-2-Oxoazetidin-3-yl]-nonanamide]
